The results in this text go back to patent US20250084097A1, “MACROCYCLIC AMIDE COMPOUNDS AND APPLICATION THEREOF” (Medshine Discovery Inc., priority 2021, published 2025).

One data set addresses T1, EGFR (L858R/T790M/C797S) (Homo sapiens, UniProt P00533, C797S/L858R/T790M).
T1 construct: Reaction Biology Corp. (assay performed there)
Description: Kinase inhibitory activity, 33P-ATP filtration-binding (Reaction Biology Corp.). The settings on record: ATP 100 μM; read-out: Kinase half-maximal inhibition concentration IC50 EGFR(L858R/T790M/C797S). The data set is classed as biochemical. How it is done: (§1) Compound assay for kinase inhibitory activity against EGFR (L858R/T790M/C797S), EGFR (del19-E746-A750/T790M/C797S), and EGFR (WT) was done at Reaction Biology Corp. In reaction buffer (20 mM Hepes (pH 7.5), 10 mM magnesium chloride (MgCl2), 1 mM ethylenebis(oxyethylenenitrilo)tetraacetic acid (EGTA), 0.02% polyethylene glycol monododecyl ether (Brij35), 0.02 mg/ml BSA, 0.1 mM sodium vanadate (Na3VO4), 2 mM dithiothreitol (DTT), 1% DMSO), a certain concentration of substances, coenzyme factors, kinases and test compounds (10 doses, 3-fold serial dilutions, 2% DMSO final concentration) were added in sequence, and mixed well. The mixture was incubated at room temperature for 20 minutes. A certain concentration of ^33P-ATP was added to the reaction mixture to initiate reaction, followed by incubation at room temperature for 120 minutes. Finally, the radioactivity of the reactants was detected by filtration-binding method. The final kinase activity was expressed as the ratio of the remaining kinase activity of the test sample to the kinase activity of the DMSO control group. The dose-response relationship curve was fitted and IC50 was calculated using GraphPad software.

In the next data set the target is T2, EGFR (WT) (Homo sapiens, UniProt P00533).
T2 construct: Reaction Biology Corp. (assay performed there)
T2 sequence (P00533 25-1210): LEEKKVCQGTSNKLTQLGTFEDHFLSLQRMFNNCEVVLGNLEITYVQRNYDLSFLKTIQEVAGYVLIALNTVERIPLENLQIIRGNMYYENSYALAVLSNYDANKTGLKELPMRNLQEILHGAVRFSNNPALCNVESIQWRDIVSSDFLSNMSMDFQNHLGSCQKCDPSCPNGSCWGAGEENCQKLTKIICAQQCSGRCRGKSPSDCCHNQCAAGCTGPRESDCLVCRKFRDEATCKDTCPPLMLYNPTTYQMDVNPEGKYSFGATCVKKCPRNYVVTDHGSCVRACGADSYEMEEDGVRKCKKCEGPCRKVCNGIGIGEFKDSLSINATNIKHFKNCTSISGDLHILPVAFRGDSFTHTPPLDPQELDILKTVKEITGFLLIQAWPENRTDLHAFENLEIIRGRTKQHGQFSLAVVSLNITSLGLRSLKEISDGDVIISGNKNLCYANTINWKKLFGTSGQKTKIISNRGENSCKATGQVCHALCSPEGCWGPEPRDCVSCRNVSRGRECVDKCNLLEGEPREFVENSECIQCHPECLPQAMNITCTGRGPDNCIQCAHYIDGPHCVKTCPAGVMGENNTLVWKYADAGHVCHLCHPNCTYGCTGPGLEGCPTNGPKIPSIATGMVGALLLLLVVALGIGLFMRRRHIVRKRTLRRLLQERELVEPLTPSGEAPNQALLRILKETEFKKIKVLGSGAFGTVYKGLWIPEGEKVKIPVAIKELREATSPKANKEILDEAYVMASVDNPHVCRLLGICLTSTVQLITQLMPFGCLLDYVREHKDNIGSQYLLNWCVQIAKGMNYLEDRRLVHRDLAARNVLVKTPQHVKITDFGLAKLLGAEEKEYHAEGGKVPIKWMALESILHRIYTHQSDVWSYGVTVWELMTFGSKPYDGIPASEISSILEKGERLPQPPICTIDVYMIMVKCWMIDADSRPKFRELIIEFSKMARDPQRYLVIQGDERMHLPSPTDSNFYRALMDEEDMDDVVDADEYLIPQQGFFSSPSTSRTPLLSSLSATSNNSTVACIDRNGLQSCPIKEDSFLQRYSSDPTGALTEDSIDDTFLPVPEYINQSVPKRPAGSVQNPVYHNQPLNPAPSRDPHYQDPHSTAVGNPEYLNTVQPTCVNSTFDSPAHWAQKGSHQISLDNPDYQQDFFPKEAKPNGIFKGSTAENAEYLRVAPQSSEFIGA
The description is as above. The settings on record: ATP 100 μM; read-out: Kinase half-maximal inhibition concentration IC50 EGFR(WT). The class given is biochemical. How it is done:
as §1

Data set [1] has as its target T3, EGFR (del19-E746-A750/T790M/C797S) (Homo sapiens, UniProt P00533, C797S/DEL746-750/T790M).
T3 construct: Reaction Biology Corp. (assay performed there)
The data set is described as above. The class given is biochemical. The settings on record: ATP 100 μM; read-out: Kinase half-maximal inhibition concentration IC50 EGFR(del19-E746-A750/T790M/C797S). As for the experimental part: as §1

Data set [2] deals with Ba/F3-FL-EGFR (del19-E746-A750/C797S) (Homo sapiens, UniProt P00533, DEL746-750/C797S, cells depend on it). Description: Cell proliferation inhibition, CellTiter-Glo. The conditions noted are these: 72 hours, read-out: Cell half-maximal inhibition concentration IC50 Ba/F3-FL-EGFR (del19-E746-A750/C797S). The class given is cell-based. How it is done: AdenosineTri-Phosphate (ATP) is an energy carrier shared by various life activities in nature, and is the smallest unit of energy storage and transfer. The CellTiter-Glo™ living cell assay kit uses luciferase as a detector, and luciferase requires the participation of ATP in the process of luminescence. CellTiter-Glo™ reagent is added to a cell culture medium, and the luminescence value is measured. The light signal is directly proportional to the amount of ATP in the system, and ATP is positively correlated with the number of living cells. Therefore, cell proliferation can be detected by detecting ATP content with the CellTiter-Glo kit. In this assay, the cell lines were Ba/F3-FL-EGFR (L858R/T790M/C797S), Ba/F3-FL-EGFR (WT), Ba/F3-FL-EGFR (L858R), Ba/F3-FL-EGFR (del19-S752-I759), Ba/F3-FL-EGFR (del19-E746-A750/T790M/C797S), Ba/F3-FL-EGFR (L858R/T790M), Ba/F3-FL-EGFR (del19-E746-A750/T790M), Ba/F3-TEL-EGFR (L858R/C797S), Ba/F3-FL-EGFR (del19-E746-A750/C797S) stably transfected cell lines.
Ba/F3-FL-EGFR (del19-E746-A750/C797S), sequence (P00533 with tags, fused parts or gaps DEL746-750/C797S): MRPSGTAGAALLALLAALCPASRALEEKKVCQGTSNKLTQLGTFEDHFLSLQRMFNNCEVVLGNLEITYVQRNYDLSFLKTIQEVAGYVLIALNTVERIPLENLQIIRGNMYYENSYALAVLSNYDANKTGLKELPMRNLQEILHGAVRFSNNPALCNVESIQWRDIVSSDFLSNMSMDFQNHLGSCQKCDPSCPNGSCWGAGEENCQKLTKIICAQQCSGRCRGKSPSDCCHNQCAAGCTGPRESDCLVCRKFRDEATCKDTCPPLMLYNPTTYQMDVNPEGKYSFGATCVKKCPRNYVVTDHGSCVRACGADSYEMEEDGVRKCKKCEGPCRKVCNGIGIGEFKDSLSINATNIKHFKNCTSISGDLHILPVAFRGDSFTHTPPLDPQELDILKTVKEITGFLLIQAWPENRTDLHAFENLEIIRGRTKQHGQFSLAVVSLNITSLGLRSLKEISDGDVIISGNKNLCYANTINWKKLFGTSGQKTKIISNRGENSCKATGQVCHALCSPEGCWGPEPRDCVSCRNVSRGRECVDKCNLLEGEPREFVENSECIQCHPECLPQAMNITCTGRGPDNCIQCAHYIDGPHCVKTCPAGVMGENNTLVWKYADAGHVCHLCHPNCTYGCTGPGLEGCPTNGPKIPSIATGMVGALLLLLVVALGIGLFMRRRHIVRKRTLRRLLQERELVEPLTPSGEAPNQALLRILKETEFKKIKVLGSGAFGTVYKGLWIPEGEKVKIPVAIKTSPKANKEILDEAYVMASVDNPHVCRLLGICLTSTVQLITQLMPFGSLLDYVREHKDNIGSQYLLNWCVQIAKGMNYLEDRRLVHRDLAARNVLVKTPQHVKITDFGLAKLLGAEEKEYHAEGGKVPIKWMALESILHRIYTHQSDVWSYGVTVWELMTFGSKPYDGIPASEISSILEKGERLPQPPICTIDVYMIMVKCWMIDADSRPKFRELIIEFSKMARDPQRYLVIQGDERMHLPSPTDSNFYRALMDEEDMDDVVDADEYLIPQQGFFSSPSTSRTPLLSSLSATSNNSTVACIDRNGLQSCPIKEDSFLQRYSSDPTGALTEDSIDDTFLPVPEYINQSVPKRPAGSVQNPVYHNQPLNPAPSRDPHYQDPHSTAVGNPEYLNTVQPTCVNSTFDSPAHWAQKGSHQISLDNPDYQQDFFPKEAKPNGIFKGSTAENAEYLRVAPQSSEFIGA
The cell lines were cultured in an incubator at 37° C. and 5% CO2. The cells were periodically passaged, and cells in logarithmic growth phase were taken for plating.
a) DMSO was used to prepare a 10 mM solution of the compound to be tested, and then the compound to be tested was diluted to 0.3 or 1 mM with DMSO.
b) Preparation of 1000× compound storage plate (tube): DMSO was used to dilute by 3-fold gradient from the highest concentration to the lowest concentration, with a total of 9 concentrations.
c) Preparation of 20× compound working solution: 49 μL of cell culture medium was added to a flat-bottomed 96-well transparent drug plate, and 1 μL of compound was pipetted from the 1000× compound storage plate to the cell culture medium of the 96-well transparent drug plate. 1 μL of DMSO was added to the vehicle control. After adding compound or DMSO, the well content was mixed to uniform by aspiration and expelling with pipette.
a) Cells were stained with trypan blue and viable cells were counted. The cell viability rate was required to be above 90%.
b) 95 μL of cell suspension (2000 cells/well) was added to each well of the compound detection cell plate, and culture medium without cells (containing 0.1% DMSO) was added to the Min control well.
c) Dosing in the compound detection cell plate: 5 μL of 20× compound working solution was added to the cell culture plate. 5 μL of DMSO-cell culture mixture was added to the Max control. The final concentration of DMSO was 0.1%.
d) The culture plate was incubated in an incubator at 37° C., 5% CO2 for 72 hours.
Cell proliferation inhibition rate (Inhibition Rate) data were processed using the following formula:
Inhibition Rate (Inh %)=100−(RLUDrug−RLUMin)/(RLUMax−RLUMin)*100%.
The inhibition rates corresponding to different concentrations of compounds were calculated, and then GraphPad Prism software was used to draw the inhibition rate curve and the IC50 value was calculated.
A general note: ATP-based viability assays read luminescence as a measure of living cells.

The nature of data set [3]: Body weight of animals in the in vivo efficacy assay. The conditions noted are these: for Body weight of the mice compared to the control group (tolerance): 10 days of continuous administration, 10 mg/kg and 25 mg/kg. As for the experimental part:
Dosage according to mouse body weight: 10 μL/g. If the body weight decreases by more than 20%, the dosing regimen was adjusted accordingly.
The formulation and any modifications of this assay protocol were evaluated and approved by the Laboratory Animal Welfare Ethics Committee of the testing institution. The health status and death of animals were checked every day. Routine inspections included tumor growth, activity, diet, body weight, eyes, hair and other abnormal behaviors of animals. Tumor volume and body weight were measured three times a week (Monday, Wednesday and Friday). The tumor volume was measured with a vernier caliper, and the formula was TV=0.5 a×b^2, where a is the long diameter of a tumor and b is the short diameter of a tumor.
The body weight of assay animals was used as a reference index to indirectly determine drug toxicity.

Setting [4] is: 10 mg/kg/bid, day 0 after administration.
Setting [5] is: 10 mg/kg/bid, day 3 after administration.
Setting [6] is: 10 mg/kg/bid, day 5 after administration.
Where [7] appears, read: 10 mg/kg/bid, day 7 after administration.
Where [8] appears, read: 10 mg/kg/bid, day 10 after administration.
Where [9] appears, read: 25 mg/kg/bid, day 0 after administration.
[10] abbreviates: 25 mg/kg/bid, day 3 after administration.
Where [11] appears, read: 25 mg/kg/bid, day 5 after administration.
The mark [12] stands for this setting: 25 mg/kg/bid, day 7 after administration.
Where [13] appears, read: 25 mg/kg/bid, day 10 after administration.

Each structure is given as a SMILES string.

T1 sequence (P00533 25-1210 T790M/C797S/L858R): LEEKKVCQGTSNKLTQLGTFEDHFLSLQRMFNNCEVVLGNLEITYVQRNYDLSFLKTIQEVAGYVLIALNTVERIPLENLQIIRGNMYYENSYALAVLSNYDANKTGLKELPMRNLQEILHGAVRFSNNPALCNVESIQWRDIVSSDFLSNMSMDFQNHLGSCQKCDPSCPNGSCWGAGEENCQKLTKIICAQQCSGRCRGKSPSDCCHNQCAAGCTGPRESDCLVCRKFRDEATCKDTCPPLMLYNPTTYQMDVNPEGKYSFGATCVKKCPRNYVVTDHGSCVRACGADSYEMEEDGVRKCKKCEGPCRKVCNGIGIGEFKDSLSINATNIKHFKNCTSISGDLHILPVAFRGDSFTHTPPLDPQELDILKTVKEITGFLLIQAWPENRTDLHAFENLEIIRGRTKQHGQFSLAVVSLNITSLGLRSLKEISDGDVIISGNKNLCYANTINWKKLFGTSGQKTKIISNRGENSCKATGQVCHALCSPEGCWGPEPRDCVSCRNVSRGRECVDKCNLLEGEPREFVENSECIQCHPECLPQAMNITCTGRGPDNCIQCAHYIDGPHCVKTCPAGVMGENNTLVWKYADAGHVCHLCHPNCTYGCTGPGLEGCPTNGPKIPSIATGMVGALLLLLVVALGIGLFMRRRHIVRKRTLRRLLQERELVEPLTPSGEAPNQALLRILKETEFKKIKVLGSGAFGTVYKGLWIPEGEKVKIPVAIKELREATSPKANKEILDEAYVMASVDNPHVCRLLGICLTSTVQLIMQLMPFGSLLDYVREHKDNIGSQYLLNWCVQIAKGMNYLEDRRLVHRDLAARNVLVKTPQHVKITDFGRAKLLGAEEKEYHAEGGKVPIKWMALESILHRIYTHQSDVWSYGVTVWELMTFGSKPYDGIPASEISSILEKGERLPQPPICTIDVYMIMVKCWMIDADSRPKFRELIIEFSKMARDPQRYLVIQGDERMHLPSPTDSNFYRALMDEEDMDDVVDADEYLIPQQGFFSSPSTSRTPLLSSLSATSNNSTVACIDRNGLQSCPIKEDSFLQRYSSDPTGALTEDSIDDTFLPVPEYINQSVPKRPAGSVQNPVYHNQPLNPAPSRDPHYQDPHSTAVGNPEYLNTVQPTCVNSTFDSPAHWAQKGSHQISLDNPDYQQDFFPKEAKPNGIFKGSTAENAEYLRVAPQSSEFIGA
T3 sequence (P00533 with tags, fused parts or gaps DEL746-750/T790M/C797S): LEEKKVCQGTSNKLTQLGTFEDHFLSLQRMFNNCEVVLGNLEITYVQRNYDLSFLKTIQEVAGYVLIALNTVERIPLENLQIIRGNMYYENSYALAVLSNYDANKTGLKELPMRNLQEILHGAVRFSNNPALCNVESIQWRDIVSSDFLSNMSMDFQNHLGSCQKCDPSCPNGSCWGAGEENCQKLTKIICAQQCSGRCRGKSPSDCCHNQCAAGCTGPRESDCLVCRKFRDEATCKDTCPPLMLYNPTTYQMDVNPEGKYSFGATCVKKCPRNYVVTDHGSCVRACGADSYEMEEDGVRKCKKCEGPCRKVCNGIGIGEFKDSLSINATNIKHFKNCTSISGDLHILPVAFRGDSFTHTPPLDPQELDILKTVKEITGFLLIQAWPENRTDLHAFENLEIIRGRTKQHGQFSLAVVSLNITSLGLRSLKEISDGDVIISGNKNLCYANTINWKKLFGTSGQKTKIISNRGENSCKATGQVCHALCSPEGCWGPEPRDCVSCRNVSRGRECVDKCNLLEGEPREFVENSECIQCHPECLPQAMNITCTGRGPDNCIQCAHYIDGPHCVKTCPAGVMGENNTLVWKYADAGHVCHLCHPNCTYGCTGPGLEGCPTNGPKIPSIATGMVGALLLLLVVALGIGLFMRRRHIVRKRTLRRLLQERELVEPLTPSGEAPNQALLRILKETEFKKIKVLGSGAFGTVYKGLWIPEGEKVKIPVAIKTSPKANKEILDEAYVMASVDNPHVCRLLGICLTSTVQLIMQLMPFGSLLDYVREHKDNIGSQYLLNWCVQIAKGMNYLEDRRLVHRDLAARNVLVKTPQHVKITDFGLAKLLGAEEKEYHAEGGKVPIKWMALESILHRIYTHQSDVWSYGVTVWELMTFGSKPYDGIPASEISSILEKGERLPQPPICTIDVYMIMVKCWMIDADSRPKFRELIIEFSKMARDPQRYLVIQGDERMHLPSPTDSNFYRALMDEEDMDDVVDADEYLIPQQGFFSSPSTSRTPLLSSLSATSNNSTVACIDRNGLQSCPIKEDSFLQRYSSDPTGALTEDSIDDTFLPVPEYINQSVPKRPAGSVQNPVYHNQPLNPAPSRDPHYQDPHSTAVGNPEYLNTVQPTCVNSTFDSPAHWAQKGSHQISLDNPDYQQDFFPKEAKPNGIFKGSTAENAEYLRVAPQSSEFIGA

Regarding `Cc1cc2cc(n1)-c1cnn(C)c1OC[C@H]1CC[C@H](C1)CN1/C(=N/C2=O)Nc2ccc(N=S(C)(C)=O)cc21` (single isomer, unassigned) [WX-027A], the figures for the IC50 (on EGFR (L858R/T790M/C797S); on EGFR (WT); in data set [1]) were 1.82 nM, 55.8 nM and 0.093 nM, respectively. In addition, the GI50 in data set [2] came to 4.7 nM. For the same molecule, the Average body weight is 21.7 g in data set [3] (setting [4]); 21.9 g in data set [3] (setting [5]); 22.1 g in data set [3] (setting [6]); 22.1 g in data set [3] (setting [7]); 22.2 g in data set [3] (setting [8]); 21.0 g in data set [3] (setting [9]). Further, the Average body weight in data set [3] (setting [10]) was determined as 21.5 g; in data set [3] (setting [11]) it was 21.6 g; in data set [3] (setting [12]), 21.4 g; in data set [3] (setting [13]), 21.8 g. For the same molecule, the “Body weight of the mice compared to the control group (tolerance)” value in data set [3] is on record as “no significant difference”.
For `Cc1cc2cc(n1)-c1cnn(C)c1OCCC[C@@H](C)CN1/C(=N/C2=O)Nc2ccc(N=S(C)(C)=O)c(Cl)c21` [WX-019], the IC50 stood at 3.55 nM on EGFR (L858R/T790M/C797S), 212 nM at EGFR (WT) and 0.139 nM in data set [1]. Moreover, in data set [2], the GI50 turned out to be 6.5 nM. Besides, the Average body weight in data set [3] (setting [4]) is on record as 20.6 g; in data set [3] (setting [5]), 20.7 g; in data set [3] (setting [6]), 20.8 g; in data set [3] (setting [7]), 20.7 g; in data set [3] (setting [8]), 20.9 g; in data set [3] (setting [9]), 22.5 g. Also, the Average body weight in data set [3] (setting [10]) came to 23.4 g; in data set [3] (setting [11]) it was 23.0 g; in data set [3] (setting [12]), 22.8 g; in data set [3] (setting [13]), 23.3 g. Besides, the “Body weight of the mice compared to the control group (tolerance)” value in data set [3] is recorded as “no significant difference”.
